Patent publication US4870175A, “6-substituted alkoxy-2-oxo-1,2-dihydroquinoxaline derivatives” (Toyo Jozo Kabushiki Kaisha, priority 1987, dated 1989)
Like-named read-outs stand apart in the source and are kept apart here.

Legend:
[1] = test system: cyclic AMP/phosphodiesterase; assay: Inhibitory action of cyclic AMP/phosphodiesterase (crude enzyme fraction from sonicated rabbit platelets); format: biochemical; conditions: 40 min
Protocol: The pharmacological activity of the present compounds [1] is illustrated below. (1) Inhibitory action of cyclic AMP/phosphodiesterase:
A mixture of 2 mM MgCl2 /40 mM Tris-buffer (pH 7.5) 700 μl, enzyme solution (a crude enzyme fraction obtained from sonicated rabbit platelets) 100 μl, and a test sample solution (compound [1] dissolved in 50% aqueous methanol) 100 μl is incubated at 30° C. for 5 mins. 3', 5'-cyclic AMP 100 μl (50 μg) is added thereto and the mixture is further incubated for 40 mins. The reaction is stopped by heating 100° C. for 5 mins. The amount of 5'-AMP in the supernatant obtained by centrifugation at 3000 rpm for 5 mins. is measured using HPLC.
As shown in that table, the compound of the present invention has cyclic AMP/phosphodiesterase inhibitory activity at 1-10 μg/ml.

[2] = test system: rabbit platelet-rich plasma; assay: Platelet aggregation inhibition (rabbit platelet-rich plasma, aggregometer); format: cell-based; conditions: Oryctolagus cuniculus, compound final concentration 10 μM, read-out: Inhibitory ratio
Protocol: (2) Platelet aggregation inhibition:
A rabbit platelet-rich plasma (5×10^5 /mm^3), to which was added 1/10 volume of a 3.8% sodium citrate solution, 216 μl, is incubated in an aggregometer at 37° C., 1000 rpm, for 3 mins. A test sample solution 12 μl (final concentration 10 μM) is added thereto and the mixture is further incubated for 3 mins., and collagen (aggregation agent) 2.5 μg/ml, ADP 2.5 μM, platelet activating factor (PAF) 0.05 μg/ml or 0.25 mM arachidonic acid (A.A.) 12 μl is added thereto as an aggregating agent, and the platelet aggregation activity is measured.

[3] = aggregating agent PAF 0.05 μg/ml
[4] = aggregating agent arachidonic acid (A.A.) 0.25 mM
[5] = aggregating agent collagen 2.5 μg/ml

Structure (SMILES) | Inhibitory ratio ([1]; 1 μg/ml) [%] | Inhibitory ratio ([1]; 10 μg/ml) [%] | inhibition at 10 µM ([2]; aggregating agent ADP 2.5 μM) [%] | inhibition at 10 µM [2, 3] [%] | inhibition at 10 µM [2, 4] [%] | inhibition at 10 µM [2, 5] [%] | Inhibitory ratio ([1]; 100 μg/ml) [%]
CCN(CC)C(=O)CCCOc1ccc2[nH]c(=O)c(-c3ccccc3)nc2c1 [Compound 988] | 46.4 | 76.9 |  |  |  |  | 
CCCc1nc2cc(OCCCC(=O)OCC)ccc2[nH]c1=O [Compound 947] | 66.9 | 90.1 | 59.5 | 27.5 | 19.6 | 39.5 | 
Cc1nc2cc(OCCCC(=O)N3CCC(c4ccccc4)CC3)ccc2[nH]c1=O [Compound 970] | 24.1 | 51.5 |  |  |  |  | 
CCOC(=O)CCCOc1ccc2[nH]c(=O)cnc2c1 [Compound 914, 6-(3-ethoxycarbonylpropoxy)-2-oxo-1,2-dihydroquinoxaline] | 18.1 | 34.3 |  |  |  |  | 54.4
CCc1nc2cc(OCCCC(=O)O)ccc2[nH]c1=O [Compound 956] | 83.9 | 92.9 |  |  |  |  | 95.0
Cc1nc2cc(OCCCC(=O)N(C)C3CCCCC3)ccc2[nH]c1=O [Compound 965] | 68.9 | 87.3 |  |  |  |  | 
CCN(CC)C(=O)CCCOc1ccc2[nH]c(=O)c(C)nc2c1 [Compound 967] | 38.0 | 81.0 |  |  |  |  | 92.8
COc1ccccc1N1CCN(C(=O)CCCOc2ccc3[nH]c(=O)c(C)nc3c2)CC1 [Compound 968] | 17.1 | 60.3 |  |  |  |  | 
Cc1nc2cc(OCCCC(=O)N(Cc3ccccc3)C3CCCCC3)ccc2[nH]c1=O [Compound 969] | 72.7 | 82.5 |  |  |  |  | 
O=c1cnc2cc(OCCCCc3nnnn3C3CCCCC3)ccc2[nH]1 [Compound 913, 6-[4-(1-cyclohexyl-tetrazole-5-yl)-butoxy]-2-oxo-1,2-dihydroquinoxaline] | 19.2 | 80.3 |  |  |  |  | 
CCCc1nc2cc(OCCCC(=O)O)ccc2[nH]c1=O [Compound 957] | 71.4 | 90.7 |  |  |  |  | 94.0
CCCCCCc1nc2cc(OCCCC(=O)O)ccc2[nH]c1=O [Compound 959] | 43.4 | 80.5 |  |  |  |  | 91.0
O=C(CCCOc1ccc2[nH]c(=O)cnc2c1)N(Cc1ccccc1)C1CCCCC1 [Compound 916] | 47.3 | 78.0 |  |  |  |  | 85.7
CCCCc1nc2cc(OCCCC(=O)N(C)C3CCCCC3)ccc2[nH]c1=O [Compound 976] | 51.1 | 84.5 |  |  |  |  | 
COc1ccccc1N1CCN(C(=O)CCCCOc2ccc3[nH]c(=O)cnc3c2)CC1 [Compound 924] | 24.6 | 63.5 |  |  |  |  | 70.2
O=C(O)CCCOc1ccc2[nH]c(=O)cnc2c1 [Compound 938, 6-(3-carboxypropoxy)-2-oxo-1,2-dihydroquinoxaline] | 17.9 | 63.1 |  |  |  |  | 88.2
CN(C(=O)CCCOc1ccc2[nH]c(=O)cnc2c1)C1CCCCC1 [Compound 896] | 25.5 | 71.5 | 37.2 | 37.1 | 31.1 | 59.2 | 91.0
CCN(C(=O)CCCOc1ccc2[nH]c(=O)cnc2c1)C1CCCCC1 [Compound 915] | 37.2 | 77.7 | 41 | 36 | 30.4 | 63.2 | 85.1
CCOC(=O)CCCOc1ccc2[nH]c(=O)c(CC)nc2c1 [Compound 946] | 78.7 | 92.5 | 91.5 | 90.7 | 85.1 | 79.2 | 
CCOC(=O)CCCOc1ccc2[nH]c(=O)c(C)nc2c1 [Compound 945] | 44.3 | 83.5 |  |  |  | 54.2 | 88.9
CCN(C(=O)CCCCOc1ccc2[nH]c(=O)cnc2c1)C1CCCCC1 [Compound 921] | 49.8 | 84.5 | 62.6 | 35.3 | 44.7 | 81 | 93.0
